From PMC3961306, “Comparison of the Cancer Gene Targeting and Biochemical Selectivities of All Targeted Kinase Inhibitors Approved for Clinical Use” (PLoS ONE, 2014)

Tests used:
Test in all cases: Kinase profiling in a biochemical assay panel (mobility shift assays and ELISA), %-inhibition at 1 μM; selectivity entropy
[1] = target: panel of more than 300 wild-type and mutant kinases (313 kinase panel) (Homo sapiens, UniProt Q16288); settings: kinase TRKC; 1 μM
[2] = target: T1, panel of more than 300 wild-type and mutant kinases (313 kinase panel) (Homo sapiens, UniProt O14920); settings: kinase IKKβ; compound at 1 μM
T1 sequence (O14920 1-756): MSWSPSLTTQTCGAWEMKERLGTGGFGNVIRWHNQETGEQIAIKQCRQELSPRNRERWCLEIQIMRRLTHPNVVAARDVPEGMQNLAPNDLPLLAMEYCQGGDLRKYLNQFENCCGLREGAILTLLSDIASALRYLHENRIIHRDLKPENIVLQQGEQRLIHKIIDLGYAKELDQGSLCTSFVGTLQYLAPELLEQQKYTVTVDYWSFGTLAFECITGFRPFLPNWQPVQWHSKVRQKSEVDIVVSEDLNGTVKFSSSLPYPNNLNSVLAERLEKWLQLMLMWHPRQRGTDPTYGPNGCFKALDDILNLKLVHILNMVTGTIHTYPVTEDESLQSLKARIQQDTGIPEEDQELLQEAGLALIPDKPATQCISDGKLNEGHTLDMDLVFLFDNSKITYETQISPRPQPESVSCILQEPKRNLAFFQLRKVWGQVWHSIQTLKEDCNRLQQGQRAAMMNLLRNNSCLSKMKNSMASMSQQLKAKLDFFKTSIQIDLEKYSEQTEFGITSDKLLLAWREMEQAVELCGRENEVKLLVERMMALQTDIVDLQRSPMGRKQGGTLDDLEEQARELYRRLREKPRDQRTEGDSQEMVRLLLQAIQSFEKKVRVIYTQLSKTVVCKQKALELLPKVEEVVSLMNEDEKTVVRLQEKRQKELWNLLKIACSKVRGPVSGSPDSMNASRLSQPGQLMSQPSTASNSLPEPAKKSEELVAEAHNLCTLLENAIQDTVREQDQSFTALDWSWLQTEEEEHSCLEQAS

[3] = target: panel of more than 300 wild-type and mutant kinases (313 kinase panel) (Homo sapiens, UniProt O60674); settings: kinase JAK2; compound at 1 μM
[4] = target: panel of more than 300 wild-type and mutant kinases (313 kinase panel) (Homo sapiens, UniProt P10721); settings: kinase KIT; compound at 1 μM
[5] = target: panel of more than 300 wild-type and mutant kinases (313 kinase panel) (Homo sapiens, UniProt P21802); settings: kinase FGFR2; compound at 1 μM
[6] = target: T2, panel of more than 300 wild-type and mutant kinases (313 kinase panel) (Homo sapiens, UniProt Q8NE63); settings: kinase HIPK4; compound at 1 μM
T2 sequence (Q8NE63 1-616): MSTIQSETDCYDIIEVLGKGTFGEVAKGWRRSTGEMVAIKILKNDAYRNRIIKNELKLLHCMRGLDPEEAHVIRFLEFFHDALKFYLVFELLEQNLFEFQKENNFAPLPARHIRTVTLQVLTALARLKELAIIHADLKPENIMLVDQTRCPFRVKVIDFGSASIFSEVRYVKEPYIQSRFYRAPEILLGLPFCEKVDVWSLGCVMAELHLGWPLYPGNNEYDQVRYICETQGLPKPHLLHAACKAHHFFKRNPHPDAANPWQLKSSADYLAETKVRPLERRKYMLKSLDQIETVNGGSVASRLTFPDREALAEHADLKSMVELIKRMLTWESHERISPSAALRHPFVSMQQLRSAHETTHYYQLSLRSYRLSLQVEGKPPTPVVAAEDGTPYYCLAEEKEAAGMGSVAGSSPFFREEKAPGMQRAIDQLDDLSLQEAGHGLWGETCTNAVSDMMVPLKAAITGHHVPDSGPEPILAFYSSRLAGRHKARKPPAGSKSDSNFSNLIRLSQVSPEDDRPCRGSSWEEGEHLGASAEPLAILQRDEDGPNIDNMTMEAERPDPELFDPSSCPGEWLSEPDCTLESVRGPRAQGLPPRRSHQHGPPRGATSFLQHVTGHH

[7] = target: T3, panel of more than 300 wild-type and mutant kinases (313 kinase panel) (Homo sapiens, UniProt O94806); settings: kinase PKD3; 1 μM
T3 sequence (O94806 1-890): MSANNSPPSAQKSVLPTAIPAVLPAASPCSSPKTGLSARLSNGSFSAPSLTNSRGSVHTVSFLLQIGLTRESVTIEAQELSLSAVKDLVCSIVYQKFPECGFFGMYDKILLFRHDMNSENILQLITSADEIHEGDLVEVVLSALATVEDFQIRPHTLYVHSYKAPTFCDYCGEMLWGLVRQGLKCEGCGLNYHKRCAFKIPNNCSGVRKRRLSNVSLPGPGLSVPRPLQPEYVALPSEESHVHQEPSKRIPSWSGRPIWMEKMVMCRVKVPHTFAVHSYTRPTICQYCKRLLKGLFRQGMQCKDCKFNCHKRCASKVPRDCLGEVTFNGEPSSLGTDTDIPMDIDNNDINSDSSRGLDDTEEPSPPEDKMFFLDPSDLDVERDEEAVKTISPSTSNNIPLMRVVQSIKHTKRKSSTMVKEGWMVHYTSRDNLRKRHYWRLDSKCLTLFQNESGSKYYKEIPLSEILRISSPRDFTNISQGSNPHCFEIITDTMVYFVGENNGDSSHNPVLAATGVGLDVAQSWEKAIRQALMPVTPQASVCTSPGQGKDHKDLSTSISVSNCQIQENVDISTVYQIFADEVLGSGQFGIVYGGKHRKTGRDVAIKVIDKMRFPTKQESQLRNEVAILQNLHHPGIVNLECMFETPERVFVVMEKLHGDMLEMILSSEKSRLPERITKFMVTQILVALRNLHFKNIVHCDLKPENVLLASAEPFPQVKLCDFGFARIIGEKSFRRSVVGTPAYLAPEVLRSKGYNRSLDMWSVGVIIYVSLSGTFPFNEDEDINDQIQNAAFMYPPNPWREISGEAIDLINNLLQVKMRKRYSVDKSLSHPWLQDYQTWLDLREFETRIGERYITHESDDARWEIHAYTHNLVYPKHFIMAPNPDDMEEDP

panel of more than 300 wild-type and mutant kinases (313 kinase panel) (Homo sapiens, UniProt P10721), sequence (P10721 26-976, change not shown): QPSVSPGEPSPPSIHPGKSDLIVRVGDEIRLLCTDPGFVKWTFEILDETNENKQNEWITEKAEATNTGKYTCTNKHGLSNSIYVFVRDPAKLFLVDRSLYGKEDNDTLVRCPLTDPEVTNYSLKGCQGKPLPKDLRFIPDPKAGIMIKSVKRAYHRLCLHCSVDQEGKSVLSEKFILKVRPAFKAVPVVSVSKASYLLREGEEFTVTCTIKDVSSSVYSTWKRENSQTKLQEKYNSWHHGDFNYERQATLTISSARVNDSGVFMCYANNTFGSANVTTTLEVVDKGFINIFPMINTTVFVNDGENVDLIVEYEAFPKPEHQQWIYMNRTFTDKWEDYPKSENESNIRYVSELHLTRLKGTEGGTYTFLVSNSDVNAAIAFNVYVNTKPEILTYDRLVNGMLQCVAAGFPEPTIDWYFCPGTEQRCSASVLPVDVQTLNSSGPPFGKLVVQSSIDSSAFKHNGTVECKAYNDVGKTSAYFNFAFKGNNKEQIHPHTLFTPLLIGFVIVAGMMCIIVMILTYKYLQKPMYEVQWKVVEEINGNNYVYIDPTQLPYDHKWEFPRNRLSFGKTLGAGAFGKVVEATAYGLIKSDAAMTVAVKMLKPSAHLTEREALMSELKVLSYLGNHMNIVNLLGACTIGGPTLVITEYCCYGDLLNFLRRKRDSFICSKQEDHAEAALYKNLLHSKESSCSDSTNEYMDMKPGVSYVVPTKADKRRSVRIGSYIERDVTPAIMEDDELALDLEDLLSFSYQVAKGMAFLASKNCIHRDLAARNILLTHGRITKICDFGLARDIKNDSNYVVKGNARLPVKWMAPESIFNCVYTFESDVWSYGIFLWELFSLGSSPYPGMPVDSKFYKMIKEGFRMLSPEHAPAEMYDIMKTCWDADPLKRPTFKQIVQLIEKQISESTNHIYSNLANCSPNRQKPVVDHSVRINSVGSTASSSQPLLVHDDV
panel of more than 300 wild-type and mutant kinases (313 kinase panel) (Homo sapiens, UniProt O60674), sequence (O60674 whole entry, change not shown): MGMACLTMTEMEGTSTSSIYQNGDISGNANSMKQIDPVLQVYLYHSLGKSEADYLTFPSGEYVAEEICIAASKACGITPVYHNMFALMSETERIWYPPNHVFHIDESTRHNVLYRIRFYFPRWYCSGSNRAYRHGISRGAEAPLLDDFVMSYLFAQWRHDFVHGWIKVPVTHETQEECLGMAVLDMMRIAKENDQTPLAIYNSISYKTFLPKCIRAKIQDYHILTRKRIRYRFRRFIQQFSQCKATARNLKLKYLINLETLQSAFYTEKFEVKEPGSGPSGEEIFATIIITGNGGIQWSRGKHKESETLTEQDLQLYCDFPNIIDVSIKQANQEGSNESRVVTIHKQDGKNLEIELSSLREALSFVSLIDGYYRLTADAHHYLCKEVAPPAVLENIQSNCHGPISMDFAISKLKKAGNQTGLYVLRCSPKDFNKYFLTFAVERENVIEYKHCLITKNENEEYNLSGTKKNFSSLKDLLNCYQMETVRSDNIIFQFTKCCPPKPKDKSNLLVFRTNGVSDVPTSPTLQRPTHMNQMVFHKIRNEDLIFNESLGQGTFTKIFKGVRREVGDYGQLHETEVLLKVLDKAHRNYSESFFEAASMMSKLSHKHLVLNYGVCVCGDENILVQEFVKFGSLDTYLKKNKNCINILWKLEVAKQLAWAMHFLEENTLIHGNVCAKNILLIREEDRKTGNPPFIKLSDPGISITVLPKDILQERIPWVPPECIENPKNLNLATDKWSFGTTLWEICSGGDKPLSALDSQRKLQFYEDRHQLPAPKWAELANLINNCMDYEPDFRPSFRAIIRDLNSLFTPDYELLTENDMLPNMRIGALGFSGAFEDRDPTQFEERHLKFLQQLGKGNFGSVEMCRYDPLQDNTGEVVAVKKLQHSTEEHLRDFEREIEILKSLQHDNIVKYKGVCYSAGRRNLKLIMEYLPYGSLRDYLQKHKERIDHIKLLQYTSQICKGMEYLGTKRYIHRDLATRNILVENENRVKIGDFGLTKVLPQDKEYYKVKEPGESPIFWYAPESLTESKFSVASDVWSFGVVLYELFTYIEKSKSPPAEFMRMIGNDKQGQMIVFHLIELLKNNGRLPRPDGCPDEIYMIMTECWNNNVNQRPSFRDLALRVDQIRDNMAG

## CNC(=O)c1cc(Oc2ccc(NC(=O)Nc3ccc(Cl)c(C(F)(F)F)c3)c(F)c2)ccn1 [regorafenib]
[1]
  %-inhibition of TRKC: 93%
[2]
  %-inhibition of IKKβ: -4.61%
[3]
  %-inhibition of JAK2: 33%
[4]
  %-inhibition of KIT: 100%
[5]
  %-inhibition of FGFR2: 103%
[6]
  %-inhibition of HIPK4: 100%
[7]
  %-inhibition of PKD3: -18%

## O=S(=O)(c1cccc2cnccc12)N1CCCNCC1 [fasudil]
[1]
  %-inhibition of TRKC: -5.34%
[2]
  %-inhibition of IKKβ: 3.71%
[3]
  %-inhibition of JAK2: 3.24%
[4]
  %-inhibition of KIT: -0.648%
[5]
  %-inhibition of FGFR2: -1.76%
[6]
  %-inhibition of HIPK4: -0.779%
[7]
  %-inhibition of PKD3: 37%
